Reference: patent US10988445B2 (AstraZeneca AB, priority 2015, dated 2021)

system: human TH17 cells; test: Inhibition of IL-17 release from human TH17 cells; assay type: cell-based; details: 96 h; isolated human TH17 cells, 4 days culture, IL-17A by HTRF; read-out: pIC50 IL-17 release (converted)
Text: Inhibition of IL-17 Release from Human TH17 Cells (IL-17 Release)
This test is designed to screen compounds for their inhibitory effect on the release of IL-17 from isolated and cultured human TH17 cells.
Peripheral blood mononuclear cells (PBMC) were isolated from heparin treated human whole blood fromhealthy donors by density gradient centrifugation. TH17 cells (CD4+CXCR3-CCR6+) were enriched using a human TH17 Cell Enrichment Kit (Stemcell Technologies) according to the manufacturer's protocol. […] On day 4 supernatants were collected and IL-17A was measured using a Human IL-17 HTRF Assay kit (Cisbio Bioassays) according to the manufacturer's protocol. […] Results

SMILES	IC50 [nM]
COC1(C(=O)N2Cc3cc(S(C)(=O)=O)ccc3C2C(=O)Nc2ccc(C(O)(C(F)(F)F)C(F)(F)F)cc2)CCC1 (stereo not drawn) [Example 448, N-[4-(1,1,1,3,3,3-Hexafluoro-2-hydroxypropan-2-yl)phenyl]-2-[(1-methoxycyclobutyl)carbonyl]-5-(methylsulfonyl)-2,3-dihydro-1H-isoindole-1-carboxamide]	79.4

same assay, conditions: Homo sapiens, 96 h, isolated human TH17 cells, 4 days culture, IL-17A by HTRF; read-out: pIC50 IL-17 release (converted)

SMILES	IC50 [nM]
COC1(CC(=O)N2Cc3cc(S(C)(=O)=O)ccc3C2C(=O)Nc2ccc(C(O)(C(F)(F)F)C(F)(F)F)cc2)CC1 (stereo not drawn) [Example 417, N-[4-(1,1,1,3,3,3-Hexafluoro-2-hydroxypropan-2-yl)phenyl]-2-[(1-methoxycyclopropyl)acetyl]-5-(methylsulfonyl)-2,3-dihydro-1H-isoindole-1-carboxamide]	31.6
C[C@@H](F)CC(=O)N1Cc2cc(S(C)(=O)=O)ccc2C1C(=O)Nc1ccc(C(O)(C(F)(F)F)C(F)(F)F)cc1 (stereo partly drawn) [Example 418, 2-[(3R)-3-Fluorobutanoyl]-N-[4-(1,1,1,3,3,3-hexafluoro-2-hydroxypropan-2-yl)phenyl]-5-(methylsulfonyl)-2,3-dihydro-1H-isoindole-1-carboxamide]	39.8
COC(C)(C)C(=O)N1Cc2cc(S(C)(=O)=O)ccc2C1C(=O)Nc1ccc(C(O)(C(F)(F)F)C(F)(F)F)cc1 (stereo not drawn) [Example 419, N-[4-(1,1,1,3,3,3-Hexafluoro-2-hydroxypropan-2-yl)phenyl]-2-(2-methoxy-2-methylpropanoyl)-5-(methylsulfonyl)-2,3-dihydro-1H-isoindole-1-carboxamide]	50.1
CC(C)OC(=O)N1Cc2cc(S(C)(=O)=O)ccc2C1C(=O)Nc1ccc(C(O)(C(F)(F)F)C(F)(F)F)cc1 (stereo not drawn) [Example 420, Propan-2-yl 1-{[4-(1,1,1,3,3,3-hexafluoro-2-hydroxypropan-2-yl)phenyl]carbamoyl}-5-(methylsulfonyl)-1,3-dihydro-2H-isoindole-2-carboxylate]	79.4
CC(C)(O)CC(=O)N1Cc2cc(S(C)(=O)=O)ccc2C1C(=O)Nc1ccc(C(O)(C(F)(F)F)C(F)(F)F)cc1 (stereo not drawn) [Example 421, N-[4-(1,1,1,3,3,3-Hexafluoro-2-hydroxypropan-2-yl)phenyl]-2-(3-hydroxy-3-methylbutanoyl)-5-(methylsulfonyl)-2,3-dihydro-1H-isoindole-1-carboxamide]	100
CC(CO)C(=O)N1Cc2cc(S(C)(=O)=O)ccc2C1C(=O)Nc1ccc(C(O)(C(F)(F)F)C(F)(F)F)cc1 (stereo not drawn) [Example 425, N-[4-(1,1,1,3,3,3-Hexafluoro-2-hydroxypropan-2-yl)phenyl]-2-(3-hydroxy-2-methylpropanoyl)-5-(methylsulfonyl)-2,3-dihydro-1H-isoindole-1-carboxamide]	79.4
CS(=O)(=O)c1ccc2c(c1)CN(C(=O)CC1(C#N)CC1)C2C(=O)Nc1ccc(C(O)(C(F)(F)F)C(F)(F)F)cc1 (stereo not drawn) [Example 427, 2-[(1-Cyanocyclopropyl)acetyl]-N-[4-(1,1,1,3,3,3-hexafluoro-2-hydroxypropan-2-yl)phenyl]-5-(methylsulfonyl)-2,3-dihydro-1H-isoindole-1-carboxamide]	100
CS(=O)(=O)c1ccc2c(c1)CN(C(=O)C1CC(O)C1)C2C(=O)Nc1ccc(C(O)(C(F)(F)F)C(F)(F)F)cc1 (stereo not drawn) [Example 430, N-[4-(1,1,1,3,3,3-Hexafluoro-2-hydroxypropan-2-yl)phenyl]-2-[(trans-3-hydroxycyclobutyl)carbonyl]-5-(methylsulfonyl)-2,3-dihydro-1H-isoindole-1-carboxamide]	126
C[C@H](O)CC(=O)N1Cc2cc(S(C)(=O)=O)ccc2C1C(=O)Nc1ccc(C(O)(C(F)(F)F)C(F)(F)F)cc1 (stereo partly drawn) [Example 433, N-[4-(1,1,1,3,3,3-Hexafluoro-2-hydroxypropan-2-yl)phenyl]-2-[(3S)-3-hydroxybutanoyl]-5-(methylsulfonyl)-2,3-dihydro-1H-isoindole-1-carboxamide]	79.4
COC1(C(=O)N2Cc3cc(S(C)(=O)=O)ccc3C2C(=O)Nc2ccc(C(O)(C(F)(F)F)C(F)(F)F)cc2)CCCC1 (stereo not drawn) [Example 434]	25.1
CC(=O)N1Cc2cc(S(C)(=O)=O)ccc2C1C(=O)Nc1ccc(C(O)(C(F)(F)F)C(F)(F)F)c(F)c1 (stereo not drawn) [Example 435, 2-Acetyl-N-[3-fluoro-4-(1,1,1,3,3,3-hexafluoro-2-hydroxypropan-2-yl)phenyl]-5-(methylsulfonyl)-2,3-dihydro-1H-isoindole-1-carboxamide]	20
CS(=O)(=O)c1ccc2c(c1)CN(C(=O)C1(C#N)CC1)C2C(=O)Nc1ccc(C(O)(C(F)(F)F)C(F)(F)F)cc1F (stereo not drawn) [Example 436, 2-[(1-Cyanocyclopropyl)carbonyl]-N-[2-fluoro-4-(1,1,1,3,3,3-hexafluoro-2-hydroxypropan-2-yl)phenyl]-5-(methylsulfonyl)-2,3-dihydro-1H-isoindole-1-carboxamide]	15.8
CC(=O)N1Cc2cc(S(C)(=O)=O)ccc2C1C(=O)Nc1ccc(C(O)(C(F)(F)F)C(F)(F)F)cc1F (stereo not drawn) [Example 437, 2-Acetyl-N-[2-fluoro-4-(1,1,1,3,3,3-hexafluoro-2-hydroxypropan-2-yl)phenyl]-5-(methylsulfonyl)-2,3-dihydro-1H-isoindole-1-carboxamide]	20
CS(=O)(=O)c1ccc2c(c1)CN(C(=O)C1(C#N)CC1)C2C(=O)Nc1ccc(C(O)(C(F)(F)F)C(F)(F)F)c(F)c1 (stereo not drawn) [Example 439, 2-[(1-Cyanocyclopropyl)carbonyl]-N-[3-fluoro-4-(1,1,1,3,3,3-hexafluoro-2-hydroxypropan-2-yl)phenyl]-5-(methylsulfonyl)-2,3-dihydro-1H-isoindole-1-carboxamide]	25.1
COC1(C(=O)N2Cc3cc(S(C)(=O)=O)ccc3C2C(=O)Nc2ccc(C(O)(C(F)(F)F)C(F)(F)F)c(F)c2)CC1 (stereo not drawn) [Example 440, N-[3-Fluoro-4-(1,1,1,3,3,3-hexafluoro-2-hydroxypropan-2-yl)phenyl]-2-[(1-methoxycyclopropyl)carbonyl]-5-(methylsulfonyl)-2,3-dihydro-1H-isoindole-1-carboxamide]	31.6
COC1(C(=O)N2Cc3cc(S(C)(=O)=O)ccc3C2C(=O)Nc2ccc(C(O)(C(F)(F)F)C(F)(F)F)cc2F)CC1 (stereo not drawn) [Example 441, N-[2-Fluoro-4-(1,1,1,3,3,3-hexafluoro-2-hydroxypropan-2-yl)phenyl]-2-[(1-methoxycyclopropyl)carbonyl]-5-(methylsulfonyl)-2,3-dihydro-1H-isoindole-1-carboxamide]	25.1
CS(=O)(=O)c1ccc2c(c1)CN(C=O)C2C(=O)Nc1ccc(C(O)(C(F)(F)F)C(F)(F)F)cc1F (stereo not drawn) [Example 442]	50.1
CC1(C(=O)N2Cc3cc(S(C)(=O)=O)ccc3C2C(=O)Nc2ccc(C(O)(C(F)(F)F)C(F)(F)F)cc2)COC1 (stereo not drawn) [Example 443]	100
CS(=O)(=O)c1ccc2c(c1)CN(C(=O)C1COC1)C2C(=O)Nc1ccc(C(O)(C(F)(F)F)C(F)(F)F)cc1 (stereo not drawn) [Example 444, N-[4-(1,1,1,3,3,3-Hexafluoro-2-hydroxypropan-2-yl)phenyl]-5-(methylsulfonyl)-2-(oxetan-3-ylcarbonyl)-2,3-dihydro-1H-isoindole-1-carboxamide]	63.1
CS(=O)(=O)c1ccc2c(c1)CN(C(=O)C1(F)CC1)C2C(=O)Nc1ccc(C(O)(C(F)(F)F)C(F)(F)F)cc1 (stereo not drawn) [Example 446, 2-[(1-Fluorocyclopropyl)carbonyl]-N-[4-(1,1,1,3,3,3-hexafluoro-2-hydroxypropan-2-yl)phenyl]-5-(methylsulfonyl)-2,3-dihydro-1H-isoindole-1-carboxamide]	31.6
CCC(OC)C(=O)N1Cc2cc(S(C)(=O)=O)ccc2C1C(=O)Nc1ccc(C(O)(C(F)(F)F)C(F)(F)F)cc1 (stereo not drawn) [Example 447, N-[4-(1,1,1,3,3,3-Hexafluoro-2-hydroxypropan-2-yl)phenyl]-2-(2-methoxybutanoyl)-5-(methylsulfonyl)-2,3-dihydro-1H-isoindole-1-carboxamide]	50.1
CCNC(=O)N1Cc2cc(S(C)(=O)=O)ccc2C1C(=O)Nc1ccc(C(O)(C(F)(F)F)C(F)(F)F)cc1 (stereo not drawn) [Example 454, N^2-Ethyl-N^1-[4-(1,1,1,3,3,3-hexafluoro-2-hydroxypropan-2-yl)phenyl]-5-(methylsulfonyl)-1,3-dihydro-2H-isoindole-1,2-dicarboxamide]	39.8
CS(=O)(=O)c1ccc2c(c1)CN(C(N)=O)C2C(=O)Nc1ccc(C(O)(C(F)(F)F)C(F)(F)F)cc1 (stereo not drawn) [Example 455, N^1-[4-(1,1,1,3,3,3-Hexafluoro-2-hydroxypropan-2-yl)phenyl]-5-(methylsulfonyl)-1,3-dihydro-2H-isoindole-1,2-dicarboxamide]	100
CS(=O)(=O)c1ccc2c(c1)CN(C(=O)NC1CC1)C2C(=O)Nc1ccc(C(O)(C(F)(F)F)C(F)(F)F)cc1 (stereo not drawn) [Example 456, N^2—Cyclopropyl-N^1-[4-(1,1,1,3,3,3-hexafluoro-2-hydroxypropan-2-yl)phenyl]-5-(methylsulfonyl)-1,3-dihydro-2H-isoindole-1,2-dicarboxamide]	12.6
COC(=O)N1Cc2cc(S(=O)(=O)C3CC3)ccc2C1C(=O)Nc1ccc(C(O)(C(F)(F)F)C(F)(F)F)cc1 (stereo not drawn) [Example 602, Methyl 5-(cyclopropylsulfonyl)-1-{[4-(1,1,1,3,3,3-hexafluoro-2-hydroxypropan-2-yl)phenyl]carbamoyl}-1,3-dihydro-2H-isoindole-2-carboxylate]	25.1
O=CN1Cc2cc(S(=O)(=O)C3CC3)ccc2C1C(=O)Nc1ccc(C(O)(C(F)(F)F)C(F)(F)F)cc1 (stereo not drawn) [Example 604, 5-(Cyclopropylsulfonyl)-2-formyl-N-[4-(1,1,1,3,3,3-hexafluoro-2-hydroxypropan-2-yl)phenyl]-2,3-dihydro-1H-isoindole-1-carboxamide]	50.1
